This is an account of results in patent publication US10765094B2, “Inflammation reporter system” (priority 2014, dated 2020).

Data set [1] deals with mouse-derived macrophage-like cell line RAW264. The experiment in a line: Reporter activity in RAW264 cells transiently transfected with the reporter gene vector, luciferase luminescence measured with a luminometer. The data set is classed as cell-based. The note with it: LPS 2 μg/mL. How it is done: The gene vector constructed as above was transiently introduced into mouse-derived macrophage-like cell line RAW264.
For transfection, Effectene (Qiagen) was used, and the cells at 24 hours after transfection were collected and provided for experiments. To a culture of transiently expressing cells, LPS (Sigma #L2654) was added at a concentration of 2 μg/mL, and the amount of luciferase luminescence at 48 hours after addition was determined by being measured with a luminometer. For use as a control, an LPS-free group was provided. In addition, as a conventional reporter system detecting only IL-1β gene expression, a vector was prepared to have GL4 ligated downstream of a promoter for the IL-1β gene, and cells transfected with this vector were provided for the same test.

The subject of data set [2] is inflammation reporter mouse. The data set can be described thus: Visualization of inflammatory reactions in the inflammation reporter transgenic mouse, bioimaging analyzer (IVIS). The class given is in vivo. The note with it: LPS 3 mg/kg wt intraperitoneally; 0, 4 and 24 hours after administration. How it is done:
The excised and purified gene vector was injected into 200 fertilized eggs at the pronucleus stage which had been taken from mice of the C57BL/6 strain, thereby obtaining 71 pups. The genomic DNA extracted from the body tissue of each pup was used for genotype analysis to thereby obtain 18 founder mice having the gene vector inserted into their genome. Four founder mice were each crossed with a wild-type mouse of the C57BL/6 strain to produce F1 generation mice, which were then examined for reporter molecule reaction when intraperitoneally administered with LPS (Sigma #L2654).
The inflammation reporter mouse thus established was intraperitoneally administered with LPS (Sigma #L2654) at a concentration of 3 mg/kg wt.

Regarding lipopolysaccharide [LPS], the “reporter signals (amount of luciferase luminescence) upon LPS stimulation” value in data set [1] (48 hours after addition, vs LPS-free group, cells transfected with vector of the present invention or of conventional type) is listed as “significant increase in reporter signals”. In addition, in data set [2], the “luciferase luminescence signals in the body” value is recorded as “luminescence signals from luciferase were able to be captured from all tissues of the body”.
In the case of “vector of the present invention: gene vector: IL-1β promoter/TK promoter, GL4 luciferase, IL-1β partial sequence (17-216 aa), CL1-PEST, SV40 polyA”, in data set [1] (48 hours, conventional vector = GL4 downstream of IL-1β gene promoter), the “improvement in sensitivity compared to the vector of conventional type” value is not below 2 fold.
